Reference: patent US8742158B2, “Protease inhibitors” (TaiMed Biologics, Inc., priority 2006, dated 2014)
“And” between values parts separate entries of the source, which are not always exact repeats. Equal entries are not always repeated. Where two headings read alike, the source gives them in different places.

How the values were obtained:
HIV-1 Protease = HIV-1 Protease (Human immunodeficiency virus type 1 group M subtype B (isolate HXB2) (HIV-1), UniProt P04585); assay: Enzymatic (FRET fluorometric) assay for determining the inhibition constant (Ki) of compounds targeting the HIV protease; type: biochemical; details: for IC50: read-out: IC50 ENZYME HIV-1 Protease
Description: Enzymatic Assay for Determining the Inhibition Constant (Ki) of Synthetic Compounds Targeting the HIV Protease
This is a fluorometric assay based on the cleavage by protease of a substrate carrying a donor group (EDANS) and an acceptor group (DABCYL) on each side of the cleavage site, interacting together through fluorescence resonance energy transfer (FRET) as described by Matayoshi et al. (Science 247:[…], 1990).
After calculation of Vo and Vi, the inhibition constant (Ki) of the compound is determined using the equation of Henderson:
where Vo=the enzyme's initial velocity
Vi=the enzyme velocity in the presence of the inhibitory compound,
[I]=inhibitor concentration, [S]=substrate concentration,
Km=Michaelis-Menten constant and Kiapp=apparent Ki
Graphs are traced and the Ki determined using GraphPad Prism software v. 3.0.

HIV-1 viral strain NL4-3 = assay: Anti-viral assay in vitro (MTT, infected MT-4 cells, six days); type: cell-based; details: Human immunodeficiency virus 1, NL43, MT4, 144 h, read-out: ANTI-HIV-EC50 VIRAL STRAIN NL4-3
Method: Anti-Viral and Cytotoxicity Assays In Vitro
• To evaluate the EC50 of our compounds, various drug concentrations are incubated with the infected cell for six days and then the metabolic activity of the cells is monitored by the MTT assay. (See A. J. Japour et al., Antimicrobial Agents and Chemotherapy, 37, 1095-1101, 1993 and R. Pauwels et al. Journal of Virological Methods, 20, 309-321, 1988) • We use the laboratory viral strain NL4.3 as wild type virus and the cell line used is MT-4 which is a T-cell line highly sensitive to HIV-1. We also use some WT clinical strains. To address the resistance issue we assay the inhibitors with NL4.3 mutants which are designed to be resistant to specific commercially available inhibitors. • The same MTT assay is used to evaluate the CCIC50 (cell culture of IC50) of our compounds except that the virus is omitted.

[1] = calculated Ki, read-out: KI-CALC ENZYME HIV-1 Protease
[2] = KIGRAPHIC ENZYME HIV-1 Protease, Ki determined graphically, read-out: […] ENZYME HIV-1 Protease

Row | Structure (SMILES) | Ki (HIV-1 Protease; [1]) [nM] | EC50 (HIV-1 viral strain NL4-3) [nM] | Ki (HIV-1 Protease; [2]) | IC50 (HIV-1 Protease) [nM]
1 | CC(C)CN([C@@H](CCCCNC(=O)[C@H](Cc1ccccc1Br)NC(=O)c1ccncc1)COP(=O)(O)O)S(=O)(=O)c1ccc(N)cc1 [EX 3, (2S,2S) phosphoric acid mono-(2-[(4-aminobenzenesulfonyl)-isobutyl-amino]-6-{3-(2-bromo-phenyl)-2-[(pyridine-4-carbonyl)-amino]-propionylamino}-hexyl)ester] | > 300 | – | – | –
2 | COC(=O)N[C@@H](Cc1ccccc1F)C(=O)NCCCC[C@@H](COP(=O)(O)O)N(CC(C)C)S(=O)(=O)c1ccc(N)cc1 [EX 4, (1S,5S)-[1-{5-[(4-amino-benzenesulfonyl)-isobutyl-amino]-6-phosphonooxy-hexylcarbamoyl}-2-(2-fluoro-phenyl)-ethyl]-carbamic acid methyl ester] | > 300 | – | – | –
3 | COC(=O)N[C@@H](Cc1ccccc1Cl)C(=O)NCCCC[C@@H](COP(=O)(O)O)N(CC(C)C)S(=O)(=O)c1ccc(N)cc1 [EX 5, (1S,5S) [1-{5-[(4-amino-benzenesulfonyl)-isobutyl-amino]-6-phosphonooxy-hexylcarbamoyl}-2-(2-chloro-phenyl)-ethyl]-carbamic acid methyl ester] | 91 | – | – | –
4 | COC(=O)N[C@@H](Cc1ccc(Br)cc1)C(=O)NCCCC[C@@H](COP(=O)(O)O)N(CC(C)C)S(=O)(=O)c1ccc(N)cc1 [EX 6, (1S,5S) [1-{5-[(4-amino-benzenesulfonyl)-isobutyl-amino]-6-phosphonooxy-hexylcarbamoyl}-2-(4-bromo-phenyl)-ethyl]-carbamic acid methyl ester] | > 300 | – | – | –
5 | COC(=O)N[C@@H](Cc1ccccc1F)C(=O)NCCCC[C@H](CO)N(CC(C)C)S(=O)(=O)c1ccc2c(c1)CCO2 [EX 13] | 9.2 | 2140 | – | –
6 | COC(=O)N[C@@H](Cc1ccccc1F)C(=O)NCCCC[C@H](CO)N(CC(C)C)S(=O)(=O)c1ccc2c(c1)OCCN2C [EX 14] | 75.7 | 1830 | – | –
7 | CC(C)CN([C@H](CO)CCCCNC(=O)[C@H](Cc1ccccc1Br)NC(=O)N1CCOCC1)S(=O)(=O)c1ccc2c(c1)CCO2 [EX 17] | < 3.8 | 665 | 1 nM and 1.03 nM | 0.599
8 | Cc1c(O)cccc1C(=O)N[C@@H](Cc1ccccc1Br)C(=O)NCCCC[C@@H](CO)N(CC(C)C)S(=O)(=O)c1ccc(N)cc1 [EX 18] | – | 136 | 0.26 nM | 0.6
9 | CC(C)CN([C@H](CO)CCCCNC(=O)[C@H](Cc1ccccc1Br)NC(=O)c1cccc(O)n1)S(=O)(=O)c1ccc(N)cc1 [EX 19] | – | 99 | 0.27 nM | 0.29
10 | Cc1ccccc1C[C@H](NC(=O)c1cccnc1)C(=O)NCCCC[C@@H](CO)N(CC(C)C)S(=O)(=O)c1ccc(N)cc1 [EX 20] | < 3.8 | 148 | – | 1.42
11 | Cc1ccc(C(=O)N[C@@H](Cc2ccccc2C)C(=O)NCCCC[C@@H](CO)N(CC(C)C)S(=O)(=O)c2ccc(N)cc2)cn1 [EX 21] | < 3.8 | 198 | – | 1.29
12 | Cc1ccccc1C[C@H](NC(=O)c1ccncc1)C(=O)NCCCC[C@@H](CO)N(CC(C)C)S(=O)(=O)c1ccc(N)cc1 [EX 22] | < 3.8 | 158 | – | 1.35
13 | Cc1ccccc1C[C@H](NC(=O)c1cccc(C)c1O)C(=O)NCCCC[C@@H](CO)N(CC(C)C)S(=O)(=O)c1ccc(N)cc1 [EX 23] | < 3.8 | > 50000 | – | 4.12
14 | COC(=O)N[C@@H](CC1CCCCC1)C(=O)NCCCC[C@@H](CO)N(CC(C)C)S(=O)(=O)c1ccc(N)cc1 [EX 24] | 5.3 | > 5000 | – | 5.21
15 | CC(C)CN([C@H](CO)CCCCNC(=O)[C@H](CC1CCCCC1)NC(=O)c1cccnc1)S(=O)(=O)c1ccc(N)cc1 [EX 25] | < 3.8 | > 5000 | – | 2.88
16 | Cc1ccc(C(=O)N[C@@H](CC2CCCCC2)C(=O)NCCCC[C@@H](CO)N(CC(C)C)S(=O)(=O)c2ccc(N)cc2)cn1 [EX 26] | < 3.8 | > 5000 | – | 3.31

Row | Structure (SMILES) | Ki (HIV-1 Protease; [1]) [nM] | EC50 (HIV-1 viral strain NL4-3) [nM] | Ki (HIV-1 Protease; [2]) | IC50 (HIV-1 Protease) [nM]
17 | COC(=O)N[C@H](C(=O)NCCCC[C@H](CO)N(CC(C)C)S(=O)(=O)c1cccc2cccnc12)C(c1ccccc1)c1ccccc1 [EX 27] | < 3.8 | 369 | – | 2.55
18 | CC(C)CN([C@H](CO)CCCCNC(=O)[C@@H](NC(=O)c1cccc(O)n1)C(c1ccccc1)c1ccccc1)S(=O)(=O)c1ccc2c(c1)OCO2 [EX 28] | – | – | 0.47 nM | –
19 | CC(C)CN([C@H](CO)CCCCNC(=O)[C@H](Cc1ccccc1Cl)NC(=O)c1ccncc1)S(=O)(=O)c1ccc(N)cc1 [EX 29] | < 3.8 | 144 | – | 3.81
20 | Cc1ncccc1C(=O)N[C@@H](Cc1ccccc1Cl)C(=O)NCCCC[C@@H](CO)N(CC(C)C)S(=O)(=O)c1ccc(N)cc1 [EX 30] | < 3.8 | 422 | – | 2.15
21 | CC(C)CN([C@H](CO)CCCCNC(=O)[C@H](CC1=C(Br)CCC=C1)NC(=O)N1CCOCC1)S(=O)(=O)c1ccc2c(c1)OCCO2 [EX 31] | < 3.8 | 980 | – | 3.66
22 | CC(C)CN([C@H](CO)CCCCNC(=O)[C@@H](NC(=O)N1CCOCC1)C(c1ccccc1)c1ccccc1)S(=O)(=O)c1ccc2c(c1)CCO2 [EX 34] | < 3.8 | 1000 | 0.821 nM | 0.963
23 | COC(=O)N[C@H](C(=O)NCCCC[C@H](CO)N(CC(C)C)S(=O)(=O)c1ccc2c(c1)N(C)CCO2)C(c1ccccc1)c1ccccc1 [EX 35] | < 3.8 | > 50000 | – | 3.01
24 | Cc1cccnc1C(=O)N[C@@H](Cc1ccccc1Br)C(=O)NCCCC[C@@H](CO)N(CC(C)C)S(=O)(=O)c1ccc(N)cc1 [EX 36] | < 3.8 | 204 | 0.267 nM | 0.503
25 | Cc1nn(C)c(Cl)c1S(=O)(=O)N[C@@H](Cc1ccc2ccccc2c1)C(=O)NCCCC[C@@H](CO)N(CC(C)C)S(=O)(=O)c1ccc(N)cc1 [EX 51] | 26.2 | – | – | –
26 | CC(C)CN([C@H](CO)CCCCNC(=O)[C@H](Cc1ccc2ccccc2c1)NS(=O)(=O)c1ccc(C#N)cc1)S(=O)(=O)c1ccc(N)cc1 [EX 53] | 37.4 | – | – | –
27 | CC(C)CN([C@H](CO)CCCCNC(=O)[C@H](Cc1ccc2ccccc2c1)NS(=O)(=O)c1cn(C)cn1)S(=O)(=O)c1ccc(N)cc1 [EX 54] | 11.4 | – | – | –
28 | COC(=O)N[C@@H](Cc1ccccc1Br)C(=O)NCCCC[C@@H](COP(=O)(O)O)N(CC(C)C)S(=O)(=O)c1ccc(N)cc1 [EX. 1, (1S,5S)-[1-{5-[(4-amino-benzenesulfonyl)-isobutyl-amino]-6-phosphonooxy-hexylcarbamoyl}-2-(2-bromo-phenyl)-ethyl]-carbamic acid methyl ester] | > 300 | – | – | –
29 | Cc1ncccc1C(=O)N[C@@H](Cc1ccccc1Br)C(=O)NCCCC[C@@H](COP(=O)(O)O)N(CC(C)C)S(=O)(=O)c1ccc(N)cc1 [EX. 2, (2S,2S) phosphoric acid mono-(2-[(4-aminobenzenesulfonyl)-isobutyl-amino]-6-{3-(2-bromo-phenyl)-2-[(2-methyl-pyridine-3-carbonyl)-amino]-propionylamino}-hexyl)ester] | > 300 | – | – | –
30 | CC(=O)N[C@H](C(=O)NCCCCC(C(N)=O)N(CC(C)C)S(=O)(=O)c1ccc(N)cc1)C(c1ccccc1)c1ccccc1 (some centres unmarked) [EX. 8] | – | 238 | – | –
31 | CC(=O)N[C@H](C(=O)NCCCC[C@@H](C(N)=O)N(CC(C)C)S(=O)(=O)c1ccc(N)cc1)C(c1ccccc1)c1ccccc1 [EX. 8] | < 3.8 | – | – | 1.07
